The target of assay [1] is T1, Trace amine-associated receptor 1 (Homo sapiens, UniProt Q96RJ0).
T1 sequence (Q96RJ0 whole entry): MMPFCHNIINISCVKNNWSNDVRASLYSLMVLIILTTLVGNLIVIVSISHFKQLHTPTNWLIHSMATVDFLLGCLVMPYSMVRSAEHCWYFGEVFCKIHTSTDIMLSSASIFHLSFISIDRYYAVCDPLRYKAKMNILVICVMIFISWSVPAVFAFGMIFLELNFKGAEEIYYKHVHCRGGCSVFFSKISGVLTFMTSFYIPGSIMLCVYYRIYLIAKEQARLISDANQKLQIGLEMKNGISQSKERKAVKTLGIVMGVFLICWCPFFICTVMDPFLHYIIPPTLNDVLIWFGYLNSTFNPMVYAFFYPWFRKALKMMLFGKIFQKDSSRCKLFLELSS
Description: Counterscreen for agonists of the human trace amine associated receptor 1 (hTAAR1): Fluorescence-based cell-based high throughput dose response assay to identify hTAAR1 agonist that also desensitize TAAR1 receptor response. In kind it is functional. Background: Counterscreens check selectivity or assay interference.

The target of assay [2] is T1, Trace amine-associated receptor 1. Briefly: Fluorescence-based cell-based high throughput dose response assay to identify agonists of the human trace amine associated receptor 1 (TAAR1). The class given is functional.
A short description of assay [3]: cells. In kind it is functional, cell-based.
A short description of assay [4]: cells. The class given is functional, cell-based. The source holds these as a separate data set.
Assay [5] can be described thus: off-target signal loss in HeLa-CEM21 co-culture – HeLa F-luc CTL cells, cherry-picked, counter-screen for HIV-1 Env fusion inhibitor project, dose response (AID 652040).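 Further: potency for signal decrease marking cytotoxic or nonspecific inhibition.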 The class given is functional, cell-based.
A short description of assay [6]: CEM21 lymphoblast cell cytotoxicity, dose response, cytotoxicity control for viral fusion inhibitor project, CellTiter-Glo luminescence, cherry-picked (AID 652042).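 Further: potency for signal decrease meaning cytotoxicity.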 The class given is functional, cell-based.
The nature of assay [7]: inhibitors of HIV Env-driven cell fusion, dose response, cherry-pick (AID 652057). In kind it is functional, cell-based.
Assay [8] is described as follows: ZM109 Env clade C HIV-1 fusion inhibitors, dose response, HeLa effector, CEM target cells, luciferase, cherry-pick (AID 652058). In kind it is functional, cell-based.
Assay [9] in a line: inhibitors of clade B AD8 Env fusion, dose response, cell-based, cherry-pick (AID 652062).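 Further: luciferase signal from cell-cell fusion driven by HIV-1 clade B AD8 Env; potency is for inhibitors of fusion seen as a drop in luminescence.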 In kind it is functional.
A short description of assay [10]: MC4R antagonists, dose response, counter-screen for LGR2 antagonist project, cell-based, plate reader, cherry pick (AID 743444).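 Further: transfected HEK 293 cells stimulated with alpha-MSH peptide; potency of inhibitors of the alpha-MSH evoked signal.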 In kind it is functional.
Assay [11] can be described thus: A549 cell cytotoxicity, dose response, cytotoxicity control, plate reader, cherry-pick, antagonist series (AID 743412). In kind it is functional, cell-based.
Assay [12] in a line: HEK293 cell cytotoxicity, dose response, cytotoxicity control, plate reader, cherry-picked samples (AID 743446). The class given is functional, cell-based.
Assay [13] can be described thus: LGR2 antagonists, dose response, cell-based, HEK293, CRE-luciferase reporter, cherry pick, set 2 (AID 743343).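 Further: transfected cells were stimulated with diluted bursicon conditioned medium after compound addition.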 The class given is functional. (In general: Reporter assays use an easily measured gene product as a stand-in for the process of interest.)
Assay [14] is described as follows: HepG2 cell cytotoxicity, dose response, cytotoxicity control, plate reader, cherry-pick, antagonist series (AID 743416). In kind it is functional, cell-based.
The target of assay [15] is T2, Long-chain-fatty-acid--AMP ligase FadD28 (Mycobacterium tuberculosis, UniProt P9WQ59).
T2 sequence (P9WQ59 whole entry): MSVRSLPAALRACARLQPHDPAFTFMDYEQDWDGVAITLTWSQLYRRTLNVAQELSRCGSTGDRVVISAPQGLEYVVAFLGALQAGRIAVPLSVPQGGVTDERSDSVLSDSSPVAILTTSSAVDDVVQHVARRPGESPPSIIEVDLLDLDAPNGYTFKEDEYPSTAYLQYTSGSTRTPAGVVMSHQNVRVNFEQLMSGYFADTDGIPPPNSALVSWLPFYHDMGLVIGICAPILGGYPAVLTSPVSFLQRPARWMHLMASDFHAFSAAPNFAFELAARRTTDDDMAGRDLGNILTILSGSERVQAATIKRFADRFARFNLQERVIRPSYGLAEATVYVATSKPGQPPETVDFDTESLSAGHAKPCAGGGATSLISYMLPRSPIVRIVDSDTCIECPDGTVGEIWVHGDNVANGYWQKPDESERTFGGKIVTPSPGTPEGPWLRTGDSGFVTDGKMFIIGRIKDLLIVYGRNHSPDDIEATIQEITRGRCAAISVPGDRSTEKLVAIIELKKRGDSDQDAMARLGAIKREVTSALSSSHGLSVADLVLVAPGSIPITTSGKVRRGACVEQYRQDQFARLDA
Description: Fluorescence polarization aasay to screen for inhibitors that compete for the binding of FadD28 to a bisubstrate Measured in Biochemical System Using Plate Reader - 2147-01_Inhibitor_Dose_CherryPick_Activity. In kind it is functional, Mycobacterium tuberculosis H37Rv. (In general: In fluorescence polarisation assays a small probe gives low polarisation when free and higher when bound to something large.)

The nature of assay [16]: NIH:OVCAR-3 ovarian cancer cell cytotoxicity, dose response, PAX8 inhibitor project, plate reader, dry powder samples (AID 743044). The class given is functional, cell-based.
Assay [17] can be described thus: IGROV1 ovarian cancer cell cytotoxicity, dose response, PAX8 inhibitor project, plate reader, dry powder samples (AID 743043). The class given is functional, cell-based. The note with it: IGROV-1.
A short description of assay [18]: cytotoxicity in OVCAR8 ovarian cancer cells, dose response, PAX8 project, cell-based, plate reader, dry powder samples (AID 743197). The class given is functional. The note with it: OVCAR-8.
In the next assay the target is Paired box protein Pax-8 (Homo sapiens, UniProt Q06710). Briefly: inhibitors of PAX8-driven TPO luciferase reporter, dose response, RMG-I cells, cherry-pick (AID 687027).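 Further: luciferase reporter driven by Pax8 target thyroperoxidase promoter measured by SteadyGlo luminescence.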 In kind it is functional, cell-based.
A short description of assay [19]: intracellular Trypanosoma cruzi inhibitors in host cells – cell-based, plate reader, cherry-pick samples, set 3, dose response (AID 651818).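 Further: compounds incubated with infected cells for about four days.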 In kind it is functional.

Calls of active or inactive are those of the source. Bounds are passed on as bounds.

Paired box protein Pax-8, sequence (Q06710 whole entry): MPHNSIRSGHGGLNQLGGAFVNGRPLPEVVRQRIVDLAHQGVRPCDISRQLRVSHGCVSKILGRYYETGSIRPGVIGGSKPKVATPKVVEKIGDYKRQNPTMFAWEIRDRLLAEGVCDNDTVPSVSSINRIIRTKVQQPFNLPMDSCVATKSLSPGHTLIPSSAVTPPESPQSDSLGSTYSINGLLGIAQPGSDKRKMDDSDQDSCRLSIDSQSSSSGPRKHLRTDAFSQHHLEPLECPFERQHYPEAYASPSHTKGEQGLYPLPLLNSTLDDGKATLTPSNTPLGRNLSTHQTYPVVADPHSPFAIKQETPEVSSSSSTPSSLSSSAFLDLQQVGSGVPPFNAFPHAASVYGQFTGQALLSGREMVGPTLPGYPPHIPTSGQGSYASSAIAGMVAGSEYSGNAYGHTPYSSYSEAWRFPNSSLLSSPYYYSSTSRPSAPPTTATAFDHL

As a reminder, the IC50 is the concentration needed to halve the response being measured. The term EC50 denotes the concentration at which the effect is half-maximal. Regarding `COc1ccccc1CCn1cnc(-c2ccc(Br)cc2)c1CC(C)C`, the IC50 is 7.08 µM (active) in [1] and 25.7 µM (inactive) in the assay “cells [3]”. Besides, the EC50 is 1.75 µM (active) in [2] and > 29.9 µM (inactive) in “cells [4]”.

The AC50 is the concentration giving half of the maximal activity seen. For the compound `CC(C)c1ccc(N(C(=O)c2csnn2)C(C(=O)NC2CCCC2)c2ccncc2)cc1` (stereo not drawn), the AC50 in [5] is 1.59 µM (active); in assay [6] it was 60.5 µM (active); in assay [7], 0.795 µM (active); in assay [8] it was 0.654 µM (active); in assay [9], 1.76 µM (active).

Consider `Cc1cc(C)c(CN2CCN(C(=O)Cn3ccc(NC(=O)OCc4ccccc4)nc3=O)CC2)c(C)c1`, for which the AC50 in assay [5] was > 70 µM (inactive); in [6] it was 26.8 µM (active); in [9] it was 4.37 µM (active).

Consider `O=C(CN1CCN(C(=O)CNC(=O)c2ccc(-c3ccccc3)cc2)CC1)Nc1ccccc1Cl`, for which the half-maximal activity concentration (AC50) was 48.1 µM (active) in [10]; 24.9 µM (active) in assay [11]; 30.1 µM (active) in [12]; 43.4 µM (active) in [13]; 31.7 µM (active) in assay [14].

For the compound `O=S(=O)(NCC(Nc1ccccc1)c1ccccc1)c1ccc(Cl)cc1` (stereo not drawn), the concentration at half-maximal activity (AC50) in assay [5] is 10.4 µM (active); in assay [6], 19 µM (active); in assay [7], 2.48 µM (active); in assay [8] it was 2.15 µM (active); in assay [9] it was 34.8 µM (active).

Take `CCOC(=O)C(NCCc1ccccc1F)(NC(C)=O)C(F)(F)F` (stereo not drawn): the IC50 (in assay [1]; in “cells [3]”) was > 29.9 µM (inactive) each time. For the same compound, the values for the EC50 (in assay [2]; in “cells [4]”) were 1.84 µM (active) and > 29.9 µM (inactive), respectively.

Take `CCC1=NN(C(=O)c2ccccc2Br)C(O)(c2ccc(Br)cc2)C1` (stereo not drawn): in assay [15], the AC50 was > 100 µM (inactive).

For `C[C@H](NC(=O)c1ccccc1)C(=O)OCC(=O)c1c[nH]c2ccccc12`, the results for the half-maximal inhibitory concentration (IC50) (in [1]; in the assay “cells [3]”) were 7.13 µM (active) and > 29.9 µM (inactive), respectively. Also, the EC50 was 3.28 µM (active) in [2] and > 29.9 µM (inactive) in “cells [4]”.

As for `C[C@@H]1CN([C@@H](C)CO)C(=O)Cc2cc(NS(=O)(=O)c3ccc(F)cc3)ccc2O[C@H]1CN(C)Cc1ccc(C(F)(F)F)cc1`, the AC50 was 19.7 µM (active) in [16], 29.2 µM (active) in [17], 26.9 µM (active) in assay [18] and 4.76 µM (active) at Paired box protein Pax-8.

`Cc1csc(NC(=O)CSc2nnc(NC(=O)NC(C)(C)C)s2)n1`: the AC50 in [15] was > 100 µM (inactive).

Take `O=C(C[C@H]1C[C@@H]2c3cc(NC(=O)Nc4ccc(C(F)(F)F)cc4)ccc3O[C@@H]2[C@@H](CO)O1)NCc1ccc(Cl)cc1`: the figures for the AC50 (in [16]; in assay [17]; at Paired box protein Pax-8) were 61.1 µM (active), 40.9 µM (active) and 7.85 µM (active), respectively.

In the case of `C[C@H](CO)N1C[C@H](C)[C@H](CN(C)Cc2ccc(C(F)(F)F)cc2)Oc2ccc(NC(=O)Nc3ccc(F)cc3)cc2C1=O`, the AC50 in assay [10] is 26.4 µM (active); in [11], 23.1 µM (active); in assay [13] it was 33.1 µM (active); in assay [19], 5.6 µM (active); in assay [14] it was 28 µM (active).

For `Cc1ccc(SCC(=O)Nc2ccc(N3CCN(C)CC3)c(F)c2)c(C)c1`, the concentration for half-maximal inhibition (IC50) in [1] was 5.55 µM (active); in the assay “cells [3]” it was > 29.9 µM (inactive). Moreover, the EC50 in assay [2] was 3.5 µM (active); in the assay “cells [4]”, > 29.9 µM (inactive).

For the origin of these results see ChEMBL document CHEMBL1201862, “PubChem BioAssay data set” (2004).
